The values below come from ChEMBL document CHEMBL1143678, “Self-assembling cannabinomimetics: supramolecular structures of N-alkyl amides” (J Nat Prod, 2007).

In general, Ki refers to a measure of affinity in units of concentration, obtained from inhibition or displacement.

This assay has as its target Cannabinoid receptor 2 (Homo sapiens, UniProt P34972). In words: Displacement of [3H]CP-55940 from CB2 receptor expressed in HEK cells. The assay is classed as cell-based, HEK293. On the technique in general: Loss of bound radioactivity is the signal in a displacement assay; it reports binding, not function.

Chain of Cannabinoid receptor 2 (P34972 whole entry): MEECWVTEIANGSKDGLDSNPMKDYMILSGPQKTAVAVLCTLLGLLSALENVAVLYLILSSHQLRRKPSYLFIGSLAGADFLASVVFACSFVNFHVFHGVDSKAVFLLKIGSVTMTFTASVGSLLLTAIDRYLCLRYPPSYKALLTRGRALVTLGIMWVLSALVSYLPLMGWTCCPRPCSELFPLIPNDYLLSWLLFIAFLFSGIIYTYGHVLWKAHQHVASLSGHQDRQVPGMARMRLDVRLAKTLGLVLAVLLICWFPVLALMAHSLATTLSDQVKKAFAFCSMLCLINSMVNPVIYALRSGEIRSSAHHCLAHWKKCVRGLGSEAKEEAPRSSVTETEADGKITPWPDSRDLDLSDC

On to `CCCCCCC/C=C/C=C/C(=O)NCC(C)C`, for which affinity was put at a Ki of 52 nM.
